Measurements reported in patent US20230137956A1, “ALPHA SUBSTITUTED STAT INHIBITORS AND COMPOSITIONS THEREOF” (JANPIX LIMITED, priority 2020, published 2023).
Like-named read-outs stand apart in the source and are kept apart here.

Columns and labels:
MV4-11 cells = experiment: MV4-11 Cell Cytotoxicity Assay; type: cell-based, human; conditions: 72 h incubation, CellTiter-Blue, read-out: IC50-MV-4-11
Method: In some embodiments, the potency of the STAT5 inhibitors are evaluated by an in vitro assay such as MV4-11 Cell Cytotoxicity Assay. MV4-11 cells were grown in Iscove's Modified Dulbecco's Medium (IMDM) supplemented with 10% fetal bovine serum (FBS). 10,000 cells were plated per well in 96-well flat-bottom sterile culture plates with low-evaporation lids. After 24 h, inhibitors and a vehicle control (0.5% DMSO) were added and the cells were incubated for 72 h at 37° C. in 5% CO2. Inhibitors were examined in triplicate at a maximal concentration of 50 μM, followed by 1:2 dilutions in subsequent wells (25, 12.5, 6.25, 3.125, 1.5625, 0.78125, 0.390625, 0.195313 and 0.097656 μM). After 72 h, the wells were treated with CellTiter-Blue® (20 μL/well), and the plates were incubated using standard cell culture conditions for 1 hour. Fluorescence was measured at 560/590 nm.

glutathione (GSH) = experiment: Reactivity Profiling with Glutathione (GSH); type: in vitro ADME; conditions: cell culture medium (IMDM, 10% FBS) with 5 mM glutathione, 25 μM inhibitor, IMDM with 10% FBS, 0.5% DMSO, 25° C., HPLC, read-out: T1/2-GSH
Method: In some embodiments, metabolic stability of the compounds is evaluated according to their reactivity profiles with GSH.
3.5 μL of 5 mM stocking solution of the inhibitors in DMSO was added to 697.5 μL of Iscove's Modified Dulbecco's Medium (IMDM) supplemented with 10% FBS and antibiotic antimycotic solution, with 5 mM glutathione to afford a final concentration of 25 μM inhibitor with 0.5% DMSO. The solution was then immediately placed in the sample tray at 25° C. Sample was analyzed at pre-defined intervals, typically every 1.5 hours, for up to four injections, by HPLC, included at time zero, without further pre-treatment. For each inhibitor, its peak is integrated at different time points and compared to the time zero injection in order to obtain a percentage remaining. Half-life is calculated according to a first order reaction kinetic taking into account those time points for which remaining percentage of inhibitor is above 40%, using the formula: t½=Ln(2)/k, where k is the slope of the linear plot of Ln[Inhibitor] vs time, according to the formula: Ln[A]=Ln[A]0−kt, where [A] is the value resulting from the integration at each time point, [A]0 the value at time zero, and t the time. For each inhibitor, both replicates are averaged and the resulting t½ reported. Selective reactivity against GSH in particular is confirmed by incubation of the inhibitor in the same solution without the presence of GSH, and single analysis after a time longer than the latest time point analyzed for the samples with GSH.

| SMILES | IC50 (MV4-11 cells; Homo sapiens, MV4-11, 72 h) [µM] | half-life at 25 μM (glutathione (GSH)) [h] | also measured |
| --- | --- | --- | --- |
| CC(C)C[C@H](C(=O)N(Cc1cc(C2CC2)cc(C(C)(C)C)c1)c1ccc(C(=O)O)c(O)c1)N(Cc1ccc(Cl)cc1)S(=O)(=O)c1c(F)c(F)c(F)c(F)c1F [Compound 1001, (R)-4-(N-(3-(tert-butyl)-5-cyclopropylbenzyl)-2-(N-(4-chlorobenzyl)-(2,3,4,5,6-pentafluorophenyl)sulfonamido)-4-methylpentanamido)-2-hydroxybenzoic acid] | – | – | IC50 (MV4-11 cells): 1e-05 to 5 µM |
| C[C@@H](C(=O)N(Cc1cc(C2CC2)cc(C(C)(C)C)c1)c1ccc(C(=O)O)c(O)c1)N(Cc1ccc(Cl)cc1)S(=O)(=O)c1c(F)c(F)c(F)c(F)c1F [Compound 1002, (S)-4-(N-(3-(tert-butyl)-5-cyclopropylbenzyl)-2-(N-(4-chlorobenzyl)-(2,3,4,5,6-pentafluorophenyl)sulfonamido)propanamido)-2-hydroxybenzoic acid] | 1e-05 to 5 | – | – |
| CC(C)[C@@H](C(=O)N(Cc1cc(C2CC2)cc(C(C)(C)C)c1)c1ccc(C(=O)O)c(O)c1)N(Cc1ccc(Cl)cc1)S(=O)(=O)c1c(F)c(F)c(F)c(F)c1F [Compound 1003, (S)-4-(N-(3-(tert-butyl)-5-cyclopropylbenzyl)-2-(N-(4-chlorobenzyl)-(2,3,4,5,6-pentafluorophenyl)sulfonamido)-3-methylbutanamido)-2-hydroxybenzoic acid] | 1e-05 to 5 | – | – |
| C[C@H](C(=O)N(Cc1cc(C2CC2)cc(C(C)(C)C)c1)c1ccc(C(=O)O)c(O)c1)N(Cc1ccc(Cl)cc1)S(=O)(=O)c1c(F)c(F)c(F)c(F)c1F [Compound 1004, (R)-4-(N-(3-(tert-butyl)-5-cyclopropylbenzyl)-2-(N-(4-chlorobenzyl)-(2,3,4,5,6-pentafluorophenyl)sulfonamido)propanamido)-2-hydroxybenzoic acid] | 5 to 10 | – | – |
| CC(C)C[C@H](C(=O)N(Cc1cc(C2CC2)cc(C(C)(C)C)c1)c1ccc(C(=O)O)c(O)c1)N(Cc1ccc(Cl)cc1)S(=O)(=O)c1c(F)c(F)c(F)c(F)c1F [Compound 1005, (R)-4-(N-(3-(tert-butyl)-5-cyclopropylbenzyl)-2-(N-(4-chlorobenzyl)-(2,3,4,5,6-pentafluorophenyl)sulfonamido)-4-methylpentanamido)-2-hydroxybenzoic acid] | – | – | IC50 (MV4-11 cells): 5 to 10 µM |
| C[C@@H](C(=O)N(Cc1cc(C2CC2)cc(C2CC2)c1)c1ccc(C(=O)O)cc1OC1CC1)N(Cc1ccc(F)cc1Cl)S(=O)(=O)c1c(F)c(F)c(F)c(F)c1F [Compound 1006, (S)-4-(2-(N-(2-chloro-4-fluorobenzyl)-(2,3,4,5,6-pentafluorophenyl)sulfonamido)-N-(3,5-dicyclopropylbenzyl)propanamido)-3-cyclopropoxybenzoic acid] | – | 2.37 to 9.23 | – |
| C[C@@H](C(=O)N(Cc1cc(C2CC2)cc(N2CCCC2)c1)c1ccc(C(=O)O)cc1C1CC1)N(Cc1ccc(F)cc1Cl)S(=O)(=O)c1c(F)c(F)c(F)c(F)c1F [Compound 1008, (S)-4-(2-(N-(2-chloro-4-fluorobenzyl)-(2,3,4,5,6-pentafluorophenyl)sulfonamido)-N-(3-cyclopropyl-5-(pyrrolidin-1-yl)benzyl)propan-amido)-3-cyclopropylbenzoic acid] | – | 2.37 to 9.23 | – |
| C[C@H](C(=O)N(Cc1cc(C2CC2)cc(N2CCCC2)c1)c1ccc(C(=O)O)cc1C1CC1)N(Cc1ccc(F)cc1Cl)S(=O)(=O)c1c(F)c(F)c(F)c(F)c1F [Compound 1009, (R)-4-(2-(N-(2-chloro-4-fluorobenzyl)-(2,3,4,5,6-pentafluorophenyl)sulfonamido)-N-(3-cyclopropyl-5-(pyrrolidin-l-yl)benzyl)propan-amido)-3-cyclopropylbenzoic acid] | – | 9.23 to 1670 | – |
